Values quoted from earlier work, collected in patent US20250222110A1, “METHODS AND COMPOSITIONS FOR TREATMENT OF AGE-RELATED CATARACTS” (LIVIONEX, Inc., priority 2024, published 2025).

Conditions: 79° F.

For `CS(C)(=O)=O` [MSM, methylsulfonylmethane], the water solubility is given as 34 % w/v.
